tested on: HCV Replicon IB; experiment: HCV replicon assay in Huh-7 cells, genotype 1b (Rluc luciferase readout); format: cell-based, hepatitis C virus; conditions: Hepatitis C virus, 72 h; 10 uM; 1b-Rluc replicon, Huh-7 cells, 3 days; read-out: Inhibition @ 10 uM in 1b-Rluc

Point of comparison: `CCC(=O)CNC(=O)c1cc(N)c2cc(C3CC3)cc(C(F)(F)F)c2n1` [Compound 220], inhibition at 10 µM 100%. Against it:
- Cc1cc(C(=O)NCC2COCC(C)(C)N2)nc2c(C(F)(F)F)cc(C3CC3)cc12 (centres unmarked) [Compound 133] — lower, 92.4%
- Cc1cc(C(=O)NC2CNC(C)(C)COC2)nc2c(C(F)(F)F)cc(C3CC3)cc12 (centres unmarked) [Compound 134] — lower, 93.1%
- Cc1cc(C(=O)NCc2ccccn2)nc2c(C(F)(F)F)cc(C3(C)CC3)cc12 [Compound 138] — lower, 99%
- CC(C)=Cc1cc(C(F)(F)F)c2nc(C(=O)NCc3ccccn3)cc(C)c2c1 [Compound 139] — lower, 99.7%
- Cc1cc(C(=O)NCc2ccccn2)nc2c(C(F)(F)F)cc(CC(C)C)cc12 [Compound 140] — lower, 99.1%
- Cc1cc(C(=O)NCc2ccccn2)nc2c(C(F)(F)F)cc(C3OC3(C)C)cc12 (centres unmarked) [Compound 141] — lower, 94.8%
- Cc1cc(C(=O)NCc2ccccn2)nc2c(C(F)(F)F)cc(C3CC3(C)C)cc12 (centres unmarked) [Compound 142] — lower, 99.4%
- Cc1cc(C(F)(F)F)c2nc(C(=O)NCc3ccccn3)cc(C)c2c1 [Compound 143] — lower, 93.7%
- Cc1cc(C(=O)NCc2ccccn2)nc2c(C(F)(F)F)cc(C#N)cc12 [Compound 144] — lower, 57.9%
- Cc1cc(C(=O)NCc2ccccn2)nc2c(C(F)(F)F)cc(C#CC(C)(C)C)cc12 [Compound 145] — lower, 72%
- C#Cc1cc(C(F)(F)F)c2nc(C(=O)NCc3ccccn3)cc(C)c2c1 [Compound 146] — lower, 99.4%
- Cc1cc(C(=O)NCc2ccccn2)nc2c(C(F)(F)F)cc(C#CC3CC3)cc12 [Compound 147] — lower, 94.1%
- CC#Cc1cc(C(F)(F)F)c2nc(C(=O)NCc3ccccn3)cc(C)c2c1 [Compound 148] — lower, 99.5%
- Cc1cc(C(=O)NCc2ccccn2)nc2c(C(F)(F)F)cc(C3=CCCC3)cc12 [Compound 149] — lower, 99.4%
- Cc1cc(C(=O)NCc2ccccn2)nc2c(C(F)(F)F)cc(C3CCCC3)cc12 [Compound 150] — lower, 99%
- Cc1cc(C(=O)NCC2CCCCN2)nc2c(C(F)(F)F)cc(C3CCCC3)cc12 (centres unmarked) [Compound 151] — lower, 99.6%
- Cc1cc(C(=O)NCc2ccccn2)nc2c(C(F)(F)F)cc(C3CC3(F)F)cc12 (centres unmarked) [Compound 154] — the same, 100%
- Cc1cc(C(=O)NC[C@@H]2COCCN2)nc2c(C(F)(F)F)cc(C3CC3(F)F)cc12 (some centres unmarked) [Compound 155] — lower, 99.7%
- C=C(C)c1cc(C(F)(F)F)c2nc(C(=O)NCc3ccccn3)cc(C)c2c1 [Compound 156] — lower, 99.6%
- Cc1cc(C(=O)NCc2ccccn2)nc2c(C(F)(F)F)cc(C(C)C)cc12 [Compound 157] — lower, 98.8%
- CCc1cc(C(F)(F)F)c2nc(C(=O)NCc3ccccn3)cc(C)c2c1 [Compound 158] — lower, 98.9%
- CC(=O)c1cc(C(F)(F)F)c2nc(C(=O)NCc3ccccn3)cc(C)c2c1 [Compound 160] — lower, 93.5%
- Cc1cc(C(=O)NCc2ccccn2)nc2c(C(F)(F)F)cc(C(C)(C)O)cc12 [Compound 161] — lower, 76.7%
- Cc1cc(C(=O)NCC(C)(C)C#N)nc2c(C(F)(F)F)cc(-c3ccccc3)cc12 [Compound 162] — lower, 80.5%
- Cc1cc(C(=O)NCC2(O)CC2)nc2c(C(F)(F)F)cc(-c3ccccc3)cc12 [Compound 163] — lower, 98.3%
- Cc1cc(C(=O)NCCCO)nc2c(C(F)(F)F)cc(-c3ccccc3)cc12 [Compound 164] — lower, 94.6%
- CCC(O)CNC(=O)c1cc(C)c2cc(-c3ccccc3)cc(C(F)(F)F)c2n1 (centres unmarked) [Compound 165] — lower, 96.5%
- Cc1cc(C(=O)NCCO)nc2c(C(F)(F)F)cc(-c3ccccc3)cc12 [Compound 166] — lower, 93.8%
- Cc1cc(C(=O)NC(CO)c2ccccc2)nc2c(C(F)(F)F)cc(-c3ccccc3)cc12 (centres unmarked) [Compound 167] — lower, 87.5%
- Cc1cc(C(=O)NCC(O)c2ccccc2)nc2c(C(F)(F)F)cc(-c3ccccc3)cc12 (centres unmarked) [Compound 168] — lower, 86.4%
- Cc1cc(C(=O)NCC(O)Cc2ccccc2)nc2c(C(F)(F)F)cc(-c3ccccc3)cc12 (centres unmarked) [Compound 169] — lower, 93%
- Cc1cc(C(=O)NC/C=C/c2ccccc2)nc2c(C(F)(F)F)cc(-c3ccccc3)cc12 [Compound 170] — lower, 66.4%
- Cc1cc(C(=O)N/C=C/Cc2ccccc2)nc2c(C(F)(F)F)cc(-c3ccccc3)cc12 [Compound 171] — lower, 92.5%
- Cc1cc(C(=O)NCC2CCCCC2)nc2c(C(F)(F)F)cc(-c3ccccc3)cc12 [Compound 172] — lower, 95.2%
- O=C(NCc1ccccn1)c1cnc2cc(-c3ccccc3)cc(C(F)(F)F)c2n1 [Compound 173] — lower, 86.3%
- C=Cc1cc(C(=O)NCc2cccs2)nc2c(C(F)(F)F)cc(-c3ccccc3)cc12 [Compound 174] — lower, 63.6%
- N#Cc1cc(-c2nnc(Nc3ccccc3)o2)nc2c(C(F)(F)F)cc(-c3ccccc3)cc12 [Compound 175] — lower, 89.3%
- CCCCN(C)c1cc(C(F)(F)F)c2nc(C(=O)NCc3ccccn3)cc(C)c2c1 [Compound 176] — lower, 80.4%
- CC(=O)Nc1cc(C(F)(F)F)c2nc(C(=O)NCc3ccccn3)cc(C)c2c1 [Compound 177] — lower, 94.7%
- Cc1cc(C(=O)NCc2ccccn2)nc2c(C(F)(F)F)cc(N)cc12 [Compound 178] — lower, 86.9%
- Cc1cc(C(=O)NCc2ccccn2)nc2c(C(F)(F)F)cc(N(C)S(C)(=O)=O)cc12 [Compound 179] — lower, 98.9%
- CC(=O)N(C)c1cc(C(F)(F)F)c2nc(C(=O)NCc3ccccn3)cc(C)c2c1 [Compound 180] — lower, 65.5%
- CNc1cc(C(F)(F)F)c2nc(C(=O)NCc3ccccn3)cc(C)c2c1 [Compound 181] — lower, 99.4%
- COc1cc(C(F)(F)F)c2nc(C(=O)NCc3ccccn3)cc(C)c2c1 [Compound 182] — lower, 99.3%
- CCCCOc1cc(C(F)(F)F)c2nc(C(=O)NCc3ccccn3)cc(C)c2c1 [Compound 183] — lower, 88.8%
- Cc1cc(C(=O)NCc2ccccn2)nc2c(C(F)(F)F)cc(OC3CCCC3)cc12 [Compound 184] — lower, 96%
- Cc1cc(C(=O)NCc2ccccn2)nc2c(C(F)(F)F)cc(OC(F)F)cc12 [Compound 187] — lower, 99.9%
- Cc1cc(C(=O)NCc2ccccn2)nc2c(C(F)(F)F)cc(OCC(F)(F)F)cc12 [Compound 189] — lower, 99.8%
- Cc1cc(C(=O)NC[C@H]2CC(F)(F)CN2)nc2c(C(F)(F)F)cc(OC(F)F)cc12 [Compound 190] — lower, 94.7%
- Cc1cc(C(=O)NC[C@@H]2CC(O)CN2)nc2c(C(F)(F)F)cc(OC(F)F)cc12 (some centres unmarked) [Compound 191] — lower, 50.2%
- O=C(NCc1ccccn1)c1cc(Cl)c2cc(OC(F)F)cc(C(F)(F)F)c2n1 [Compound 194] — lower, 99.5%
- Nc1cc(C(=O)NCc2cccc(F)n2)nc2c(C(F)(F)F)cc(OC(F)F)cc12 [Compound 195] — lower, 99.7%
- O=C(NCC1C[S+]([O-])CCN1)c1cc(Cl)c2cc(OC(F)F)cc(C(F)(F)F)c2n1 (centres unmarked) [Compound 196] — lower, 55%
- O=C(NCC1CS(=O)(=O)CCN1)c1cc(Cl)c2cc(OC(F)F)cc(C(F)(F)F)c2n1 (centres unmarked) [Compound 197] — lower, 92.8%
- Nc1cc(C(=O)NCC2CS(=O)(=O)CCN2)nc2c(C(F)(F)F)cc(OC(F)F)cc12 (centres unmarked) [Compound 198] — lower, 98.4%
- CCC(O)CNC(=O)c1cc(Cl)c2cc(OC(F)F)cc(C(F)(F)F)c2n1 (centres unmarked) [Compound 204] — lower, 95.5%
- CCC(=O)CNC(=O)c1cc(Cl)c2cc(OC(F)F)cc(C(F)(F)F)c2n1 [Compound 205] — lower, 99.2%
- CCC(CNC(=O)c1cc(Cl)c2cc(OC(F)F)cc(C(F)(F)F)c2n1)=NOC [Compound 206] — lower, 64%
- O=C(NCc1ccccn1)c1cc(Cl)c2cc(C3CC3)cc(C(F)(F)F)c2n1 [Compound 210] — lower, 99.9%
- O=C(NCC1(O)CC1)c1cc(Cl)c2cc(C3CC3)cc(C(F)(F)F)c2n1 [Compound 211] — lower, 94.8%
- O=C(NCC1COCCN1)c1cc(C(F)F)c2cc(C3CC3)cc(C(F)(F)F)c2n1 (centres unmarked) [Compound 213] — lower, 88.7%
- O=C(NCc1ccccn1)c1cc(C2CC2)c2cc(C3CC3)cc(C(F)(F)F)c2n1 [Compound 214] — lower, 92.6%
- N#Cc1cc(C(=O)NCc2ccccn2)nc2c(C(F)(F)F)cc(C3CC3)cc12 [Compound 215] — lower, 99.4%
- CNc1cc(C(=O)NCc2ccccn2)nc2c(C(F)(F)F)cc(C3CC3)cc12 [Compound 216] — lower, 98.2%
- O=C(NCC1COCCN1)c1cc(O)c2cc(C3CC3)cc(C(F)(F)F)c2n1 (centres unmarked) [Compound 217] — lower, 77%
- Nc1cc(C(=O)NCC2COCCN2)nc2c(C(F)(F)F)cc(C3CC3)cc12 (centres unmarked) [Compound 218] — lower, 99.9%
- Nc1cc(C(=O)NCC2(O)CC2)nc2c(C(F)(F)F)cc(C3CC3)cc12 [Compound 221] — lower, 98.8%
- CS(=O)(=O)Nc1nc(C(=O)NCc2cccs2)nc2c(C(F)(F)F)cc(-c3ccccc3)cc12 [Compound 222] — lower, 95.1%
- Cc1cc(C(=O)NCc2ccccn2)nc2c(C(C)(C)C)cc(C3CC3)cc12 [Compound 226] — the same, 100%
- CC(C)(C)c1cc(C2CC2)cc2c(O)cc(C(=O)NCc3ccccn3)nc12 [Compound 227] — the same, 100%
- CC(C)(C)c1cc(C2CC2)cc2c(Cl)cc(C(=O)NCC3COCCN3)nc12 (centres unmarked) [Compound 228] — lower, 94.7%
- CC(C)(C)c1cc(C2CC2)cc2c(Cl)cc(C(=O)NCc3ccccn3)nc12 [Compound 229] — the same, 100%
- CC(C)(C)c1cc(C2CC2)cc2c(N)cc(C(=O)NCc3ccccn3)nc12 [Compound 230] — the same, 100%
- O=C(NCc1ccccn1)c1cc(Cl)c2cc(C3CC3)cc(OC(F)(F)F)c2n1 [Compound 233] — the same, 100%
- Cc1cc(C(=O)NCc2ccccn2)nc2c(OC(F)(F)F)cc(C3CC3)cc12 [Compound 234] — the same, 100%

same assay, conditions: Hepatitis C virus, Huh-7, 72 h; read-out: Inhibition @ 10 uM in 1b-Rluc

`C=Cc1cc(C(F)(F)F)c2nc(C(=O)NCc3ccccn3)cc(C)c2c1` [Compound 152] was tested, and the inhibition at 10 µM was 99.9%.
